Source: ChEMBL document CHEMBL5108004, “An auristatin-based peptide-drug conjugate targeting Kita-Kyushu lung cancer antigen 1 for precision chemoradiotherapy in gastric cancer” (Eur J Med Chem, 2022)
The source made the active and inactive calls. The rule behind the calls is not given here. Where a SMILES comes first, the peptide text is derived from it. [ ]: non-standard residue; d: D form. The star is where a group is joined. Dolaproine = CO[C@@H]([C@@H]1CCCN1)[C@@H](C)C(=O)O; Dil = CC[C@H](C)[C@H](NC)[C@@H](CC(=O)O)OC; X1 = C[C@@H](N*)[C@@H](O)c1ccccc1; NMeV = CN[C@H](C(=O)O)C(C)C

Assays:
MKN-45 [1] = assay: Antitumor activity against KK-LC-1-positive human MKN-45 cells xenografted in male BALB/c nude mouse assessed as tumor volume; type: functional
MKN-45 [2] = assay: Antitumor activity against KK-LC-1-positive human MKN-45 cells xenografted in male BALB/c nude mouse assessed as reduction in tumor growth; type: functional
NUGC-4 [3] = assay: Induction of mitotic arrest in KK-LC-1-positive human NUGC-4 cells xenografted in nude mouse assessed as number of pHH3-positive nuclei in tumor at 4 nmol, iv administered as single dose and measured after 24 hrs by pHH3 immunohistochemical staining method relative to control; type: functional
HGC-27 = assay: Cytotoxicity against KK-LC-1-negative human HGC-27 cells incubated for 72 hrs by CCK-8 assay; type: functional, cell-based; details: HGC-27, 72 h
NUGC-4 [4] = assay: Cytotoxicity against KK-LC-1-positive human NUGC-4 cells incubated for 72 hrs by CCK-8 assay; type: functional, cell-based; details: NUGC-4, 72 h
MKN-45 [5] = assay: Cytotoxicity against KK-LC-1-positive human MKN-45 cells incubated for 72 hrs by CCK-8 assay; type: functional, cell-based; details: MKN-45, 72 h

For `CC[C@H](C)[C@@H]([C@@H](CC(=O)N1CCC[C@H]1[C@H](OC)[C@@H](C)C(=O)N[C@H](C)[C@@H](O)c1ccccc1)OC)N(C)C(=O)[C@@H](NC(=O)[C@@H](NC)C(C)C)C(C)C` (H-[NMeV]V[Dil][Dolaproine]-X1), the Activity (MKN-45 [1]) was 602.1 mm3, the Activity (MKN-45 [2]) was “Active” and the Activity (NUGC-4 [3]) was 28.75. The IC50 (HGC-27) was 7.18 nM, the IC50 (NUGC-4 [4]) was 11 nM and the IC50 (MKN-45 [5]) was 10.7 nM.
